Reference: patent US10870647B2, “Imidazopyridine derivative, method for preparing same, and pharmaceutical composition containing same as active ingredient for preventing or treating cancer” (DAEGU-GYEONGBUK MEDICAL INNOVATION FOUNDATION, priority 2016, dated 2020)

How the values were obtained:
Test in all cases: Kinase selectivity, scanMAX Kinase assay panel (DiscoverX), % control at 1 uM
Type in all cases: binding
[1] = biological target: T1, scanMAX Kinase assay panel (Homo sapiens, UniProt O76039); conditions: CDKL5; 1 uM; read-out: Percent Control (%)
T1 construct: purchased DiscoverX
T1 sequence (O76039 1-960): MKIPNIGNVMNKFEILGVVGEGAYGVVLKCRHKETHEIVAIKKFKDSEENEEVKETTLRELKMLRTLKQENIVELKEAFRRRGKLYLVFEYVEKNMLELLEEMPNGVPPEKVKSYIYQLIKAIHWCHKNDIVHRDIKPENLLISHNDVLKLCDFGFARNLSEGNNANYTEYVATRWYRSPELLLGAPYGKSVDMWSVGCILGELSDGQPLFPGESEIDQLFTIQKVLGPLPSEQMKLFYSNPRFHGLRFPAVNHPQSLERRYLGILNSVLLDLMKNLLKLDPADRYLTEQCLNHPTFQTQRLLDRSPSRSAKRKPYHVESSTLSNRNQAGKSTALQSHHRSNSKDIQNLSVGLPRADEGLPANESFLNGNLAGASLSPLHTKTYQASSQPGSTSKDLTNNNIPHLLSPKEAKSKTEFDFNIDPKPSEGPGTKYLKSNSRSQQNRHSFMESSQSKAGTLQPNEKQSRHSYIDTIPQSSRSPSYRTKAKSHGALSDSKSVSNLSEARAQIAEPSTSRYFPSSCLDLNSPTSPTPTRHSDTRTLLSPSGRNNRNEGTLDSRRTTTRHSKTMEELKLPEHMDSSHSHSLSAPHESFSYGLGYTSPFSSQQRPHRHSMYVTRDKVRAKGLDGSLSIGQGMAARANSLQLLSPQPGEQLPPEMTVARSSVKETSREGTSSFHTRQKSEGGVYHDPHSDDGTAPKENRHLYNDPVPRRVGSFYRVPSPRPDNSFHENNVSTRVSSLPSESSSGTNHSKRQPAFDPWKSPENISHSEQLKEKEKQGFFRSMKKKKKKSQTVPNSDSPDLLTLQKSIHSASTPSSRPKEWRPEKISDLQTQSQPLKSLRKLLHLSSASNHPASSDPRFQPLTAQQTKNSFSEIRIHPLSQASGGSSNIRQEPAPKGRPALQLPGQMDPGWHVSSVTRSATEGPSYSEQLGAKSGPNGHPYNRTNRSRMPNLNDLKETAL
Procedure, shortened: (§1)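 Each kinase was first exposed to the test compound at 1 uM in DMSO. Signal was then normalised to positive and negative controls to give % control. Finally, any enzyme showing <35% control was judged inhibited.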

[2] = biological target: T2, scanMAX Kinase assay panel (Homo sapiens, UniProt P10721, D816V); conditions: KIT (D816V); 1 uM; read-out: Percent Control (%)
T2 construct: purchased DiscoverX
Procedure, shortened: as §1

[3] = biological target: T3, scanMAX Kinase assay panel (Homo sapiens, UniProt P36888, D835Y); conditions: FLT3 (D835Y); 1 uM; read-out: Percent Control (%)
T3 construct: purchased DiscoverX
T3 sequence (P36888 27-993 D835Y): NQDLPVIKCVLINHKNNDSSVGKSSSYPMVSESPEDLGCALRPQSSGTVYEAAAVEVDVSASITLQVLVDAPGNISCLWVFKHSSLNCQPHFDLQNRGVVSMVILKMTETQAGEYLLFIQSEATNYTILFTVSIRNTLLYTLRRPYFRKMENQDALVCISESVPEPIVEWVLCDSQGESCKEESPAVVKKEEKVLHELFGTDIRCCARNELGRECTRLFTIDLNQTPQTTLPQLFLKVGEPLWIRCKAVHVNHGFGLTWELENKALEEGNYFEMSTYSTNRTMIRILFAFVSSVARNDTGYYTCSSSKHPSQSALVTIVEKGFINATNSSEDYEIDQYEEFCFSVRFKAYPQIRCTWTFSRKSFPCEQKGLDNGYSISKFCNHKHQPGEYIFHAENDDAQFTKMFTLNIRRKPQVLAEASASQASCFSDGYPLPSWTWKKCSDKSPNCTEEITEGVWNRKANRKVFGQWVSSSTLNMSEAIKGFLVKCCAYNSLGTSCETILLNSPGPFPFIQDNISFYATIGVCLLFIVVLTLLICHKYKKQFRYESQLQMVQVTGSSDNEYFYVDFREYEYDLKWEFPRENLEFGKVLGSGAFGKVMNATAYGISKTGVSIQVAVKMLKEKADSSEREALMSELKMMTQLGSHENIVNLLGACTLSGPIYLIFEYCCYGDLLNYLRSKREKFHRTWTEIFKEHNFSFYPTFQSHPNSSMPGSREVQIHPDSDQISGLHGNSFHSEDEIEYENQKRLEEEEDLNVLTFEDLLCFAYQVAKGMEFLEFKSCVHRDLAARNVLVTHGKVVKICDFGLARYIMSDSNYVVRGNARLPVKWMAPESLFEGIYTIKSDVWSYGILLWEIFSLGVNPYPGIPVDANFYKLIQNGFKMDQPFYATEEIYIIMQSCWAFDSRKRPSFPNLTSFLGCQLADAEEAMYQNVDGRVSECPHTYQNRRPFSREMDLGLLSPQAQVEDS
Procedure, shortened: as §1

[4] = biological target: T4, scanMAX Kinase assay panel (Homo sapiens, UniProt P41743); conditions: PRKCI; 1 uM; read-out: Percent Control (%)
T4 construct: purchased DiscoverX
T4 sequence (P41743 1-596): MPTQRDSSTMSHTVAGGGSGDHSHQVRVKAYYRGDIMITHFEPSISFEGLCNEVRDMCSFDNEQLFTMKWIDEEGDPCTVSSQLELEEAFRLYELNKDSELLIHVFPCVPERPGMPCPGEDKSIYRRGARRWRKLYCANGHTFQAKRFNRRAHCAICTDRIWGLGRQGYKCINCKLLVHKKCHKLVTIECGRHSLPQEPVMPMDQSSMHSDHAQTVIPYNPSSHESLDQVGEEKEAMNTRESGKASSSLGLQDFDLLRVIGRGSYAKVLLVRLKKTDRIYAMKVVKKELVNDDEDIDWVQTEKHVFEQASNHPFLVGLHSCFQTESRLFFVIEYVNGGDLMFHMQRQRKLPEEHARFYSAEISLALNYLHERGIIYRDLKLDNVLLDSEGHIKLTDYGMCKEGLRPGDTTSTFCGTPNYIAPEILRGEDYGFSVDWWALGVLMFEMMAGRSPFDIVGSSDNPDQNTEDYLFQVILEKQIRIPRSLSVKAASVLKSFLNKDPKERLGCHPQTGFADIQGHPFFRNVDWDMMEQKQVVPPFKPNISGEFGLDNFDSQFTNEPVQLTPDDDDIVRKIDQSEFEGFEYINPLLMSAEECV
Procedure, shortened: as §1

T2 sequence (P10721 26-976 D816V): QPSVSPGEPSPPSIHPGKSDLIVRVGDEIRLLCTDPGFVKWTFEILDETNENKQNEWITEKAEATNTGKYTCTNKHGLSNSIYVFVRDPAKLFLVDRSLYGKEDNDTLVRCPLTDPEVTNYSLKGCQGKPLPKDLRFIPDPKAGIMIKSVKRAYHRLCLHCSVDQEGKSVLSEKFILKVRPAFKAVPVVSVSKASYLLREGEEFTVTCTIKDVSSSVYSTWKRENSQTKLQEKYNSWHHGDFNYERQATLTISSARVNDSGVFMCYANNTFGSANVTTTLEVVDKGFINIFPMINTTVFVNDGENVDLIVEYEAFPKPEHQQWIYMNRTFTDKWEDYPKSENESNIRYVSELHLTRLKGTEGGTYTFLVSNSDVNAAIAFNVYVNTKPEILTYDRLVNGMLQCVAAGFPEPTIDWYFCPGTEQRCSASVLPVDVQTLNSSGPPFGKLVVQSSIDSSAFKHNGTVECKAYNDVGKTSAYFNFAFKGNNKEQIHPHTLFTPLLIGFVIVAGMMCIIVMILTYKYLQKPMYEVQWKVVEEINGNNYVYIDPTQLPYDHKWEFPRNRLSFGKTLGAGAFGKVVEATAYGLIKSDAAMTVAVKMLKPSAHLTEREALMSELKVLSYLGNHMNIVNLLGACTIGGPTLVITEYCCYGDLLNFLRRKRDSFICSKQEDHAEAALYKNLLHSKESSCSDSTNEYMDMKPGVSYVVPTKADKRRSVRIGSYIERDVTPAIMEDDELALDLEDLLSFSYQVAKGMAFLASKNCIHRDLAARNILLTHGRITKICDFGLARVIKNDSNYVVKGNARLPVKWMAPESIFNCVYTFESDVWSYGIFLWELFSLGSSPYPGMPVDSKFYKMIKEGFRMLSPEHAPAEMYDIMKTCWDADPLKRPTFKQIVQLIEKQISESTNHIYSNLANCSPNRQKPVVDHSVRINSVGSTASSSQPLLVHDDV

SMILES	remaining binding at 1 µM [1] [%]	remaining binding at 1 µM [2] [%]	remaining binding at 1 µM [3] [%]	remaining binding at 1 µM [4] [%]
Cc1ccc(NC(=O)C2(C(=O)Nc3ccc(F)cc3)CC2)cc1C#Cc1cnc2c(Nc3cnn(C(C)C)c3)cccn12 [Example 78]	92	61	79	69
Cc1cn(-c2cc(NC(=O)c3ccc(C)c(C#Cc4cnc5c(Nc6cnn(C)c6)cccn45)c3)cc(C(F)(F)F)c2)cn1 [Example 12, 4-methyl-N-(3-(4-methyl-1H-imidazol-1-yl)-5-(trifluoromethyl)phenyl)-3-((8-((1-methyl-1H-pyrazol-4-yl)amino)imidazo[1,2-a]pyridin-3-yl)ethynyl)benzamide]	100	7	14	66
Cc1ccc(C(=O)Nc2ccc(CN3CCN(C)CC3)c(C(F)(F)F)c2)cc1C#Cc1cnc2c(Nc3cnn(C)c3)cccn12 [Example 1, 4-methyl-3-((8-((1-methyl-1H-pyrazol-4-yl)amino)imidazo[1,2-a]pyridin-3-yl)ethynyl)-N-(4-((4-methylpiperazin-1-yl)methyl)-3-(trifluoromethyl)phenyl)benzamide]	94	3	5	51
